Measured values published in patent publication US20250281457A1, “TREATMENT OR PREVENTION OF DENGUE VIRAL INFECTION” (Janssen Pharmaceuticals, Inc., priority 2022, published 2025).
Read-outs that look alike come from different tables or passages of the source.

Assay: Plasma pharmacokinetics with loading dose and weekly or twice weekly maintenance dosing, fed (Example 5)
Assay type: in vivo, human
Conditions: for AUC: read-out: Mean AUCτ (SD); for Tmax: read-out: Median tmax (min-max); for Cmax: read-out: Mean Cmax (SD)
Method: A pharmaceutical formulation comprising Compound (a) as described in Example 2 (SF2a/b) was administered as an oral dosage form, to healthy adult participants, in a fed state. Four dose regimens were applied: • Panel I (weekly dosing): 450 mg of Compound (a) twice a day (BID) for two days: on day 1 (D1) and on day 2 (D2) (loading dose); and then 900 mg once a week (Q7D), on day 3 (D3), day 10 (D10), day 17 (D17), and on day 24 (D24) (maintenance dose). • Panel II (biweekly dosing): 450 mg of Compound (a) twice a day (BID) for two days: on day 1 (D1) and on day 2 (D2); (loading dose) and then 450 mg once every 3 (Q3D) or 4 days (Q4D): on day 3 (D3), on day 6 (D6), on day 10 (D10), on day 13 (D13), on day 17 (D17), on day 20 (D20), on day 24 (D24), and on day 27 (D27), for a total of 900 mg each week administered through two doses of 450 mg each (maintenance dose). • Panel III (weekly dosing): 150 mg of Compound (a) twice a day (BID) for two days: on day 1 (D1) and on day 2 (D2) (loading dose); and then 300 mg once a week (Q7D): on day 3 (D3), day 10 (D10), day 17 (D17), and on day 24 (D24) (maintenance dose). • Panel IV (biweekly dosing): 150 mg of Compound (a) twice a day (BID) for two days: on day 1 (D1) and on day 2 (D2) (loading dose); and then 150 mg Q3D or Q4D: on day 3 (D3), on day 6 (D6), on day 10 (D10), on day 13 (D13), on day 17 (D17), on day 20 (D20), on day 24 (D24), and on day 27 (D27), for a total of 300 mg each week administered through two doses of 150 mg each (maintenance dose).
Oral dosage forms were administered together with approximately 240 mL of non-carbonated water under fed conditions, and were taken within 10 minutes after completion of normal standardized normal fat breakfast in the morning or after completion of normal standardized normal fat dinner in case of evening dosing. Intake of Compound (a) took place at around the same time each day. Intake of Compound (a) marked time 0 hours.
A standardized normal fat meal was served approximately 30 minutes before study drug intake. The standardized normal fat meal contained approximately 21 g of fat, 67 g of carbohydrates, 19 g of proteins resulting in around 533 kcal (an example meal is 4 slices of bread, 2 slices of ham or cheese, butter, jelly, and 1 or 2 cups (up to 355 mL) of decaffeinated coffee or tea with milk and/or sugar). The standardized normal fat meal was ingested entirely within 30 minutes or less. Within 10 minutes after completing the meal, but no more than 30 minutes after the start of the meal, study drug was administered. In case of Compound (a) intake in the evening, timing of standardized dinner was aligned to time of drug intake. […]
For Study Panel 1 only, additional whole blood samples were be collected on Days 1, 24, 25, 26, 38, 45, 51, and 59 using venipuncture. The whole blood samples were be used for the determination of Compound (a) whole blood concentrations and for determination of Compound (a) plasma concentrations. To determine Compound (a) venous whole blood concentrations, an aliquot of the whole blood sample was be pipetted onto the TASSO M-20 for better comparison with capillary whole blood samples collected by TASSO M-20. […]
Separation between metabolites and interfering endogenous compounds was achieved by injecting 2 μL sample extract onto an Acquity UPLC BEH C18 column (50×2.1 mm, 1.7 μm, Waters) at 50° C. and using 10 mM ammonium bicarbonate solution as mobile phase A, and methanol: acetonitrile (50:50, v/v) as mobile phase B. A gradient elution at a flow rate of 0.600 mL/min was applied using the following program: 35% B was increased to 90% B in 3 min, was further increased to 98% B at 3.01 min and held constant up to 4.00 min.
A Triple Quad 6500+ mass spectrometer (Sciex) equipped with a turbo ion spray source was used for analyte detection in positive ion mode using electrospray ionization. […]

[1] = Panel I (450 mg BID Days 1-2, then 900 mg Q7D; SF2a/b, fed), Day 2
[2] = Panel II (450 mg BID Days 1-2, then 450 mg Q3D/Q4D; SF2a/b, fed), Day 2
[3] = Panel III (150 mg BID Days 1-2, then 300 mg Q7D; SF2a/b, fed), Day 2
[4] = Panel IV (150 mg BID Days 1-2, then 150 mg Q3D/Q4D; SF2a/b, fed), Day 2
[5] = human, plasma, oral, 150 mg, Panel III (150 mg BID Days 1-2, then 300 mg Q7D; SF2a/b, fed), Day 1
[6] = human, plasma, oral, 150 mg, Panel III (150 mg BID Days 1-2, then 300 mg Q7D; SF2a/b, fed), Day 2
[7] = human, plasma, oral, 150 mg, Panel IV (150 mg BID Days 1-2, then 150 mg Q3D/Q4D; SF2a/b, fed), Day 3
[8] = human, plasma, oral, 150 mg, Panel IV (150 mg BID Days 1-2, then 150 mg Q3D/Q4D; SF2a/b, fed), Day 27

COc1cc(NC(C(=O)c2c[nH]c3ccc(OC(F)(F)F)cc23)c2ccc(Cl)cc2OC)cc(S(C)(=O)=O)c1 (centres unmarked) [Compound (a)]
Mean Cmin (SD) (Panel I (450 mg BID Days 1-2, then 900 mg Q7D; SF2a/b, fed), Day 1): 0.000 (0.000) ng/mL
Mean Cmin (SD) [1]: 2750 (1089) ng/mL
Mean Ctrough (SD) [1]: 2780 (1047) ng/mL
Mean Ctrough (SD) (Panel I (450 mg BID Days 1-2, then 900 mg Q7D; SF2a/b, fed), Day 3): 4370 (976) ng/mL
Mean Ctrough (SD) (Panel I (450 mg BID Days 1-2, then 900 mg Q7D; SF2a/b, fed), Day 10): 1965 (35.4) ng/mL
Mean Ctrough (SD) (Panel I (450 mg BID Days 1-2, then 900 mg Q7D; SF2a/b, fed), Day 17): 1500 (113) ng/mL
Mean Cmin (SD) (Panel II (450 mg BID Days 1-2, then 450 mg Q3D/Q4D; SF2a/b, fed), Day 1): 0.000 (0.000) ng/mL
Mean Cmin (SD) [2]: 2492 (307) ng/mL
Mean Ctrough (SD) [2]: 2503 (293) ng/mL
Mean Ctrough (SD) (Panel II (450 mg BID Days 1-2, then 450 mg Q3D/Q4D; SF2a/b, fed), Day 3): 4132 (401) ng/mL
Mean Ctrough (SD) (Panel II (450 mg BID Days 1-2, then 450 mg Q3D/Q4D; SF2a/b, fed), Day 6): 2708 (429) ng/mL
Mean Ctrough (SD) (Panel II (450 mg BID Days 1-2, then 450 mg Q3D/Q4D; SF2a/b, fed), Day 10): 2340 (577) ng/mL
Mean Ctrough (SD) (Panel II (450 mg BID Days 1-2, then 450 mg Q3D/Q4D; SF2a/b, fed), Day 13): 2343 (639) ng/mL
Mean Ctrough (SD) (Panel II (450 mg BID Days 1-2, then 450 mg Q3D/Q4D; SF2a/b, fed), Day 17): 2088 (693) ng/mL
Mean Ctrough (Panel II (450 mg BID Days 1-2, then 450 mg Q3D/Q4D; SF2a/b, fed), Day 20): 2270 (652) ng/mL
Mean Ctrough (SD) (Panel II (450 mg BID Days 1-2, then 450 mg Q3D/Q4D; SF2a/b, fed), Day 24): 2016 (847) ng/mL
Mean Ctrough (SD) (Panel II (450 mg BID Days 1-2, then 450 mg Q3D/Q4D; SF2a/b, fed), Day 27): 1928 (605) ng/mL
Mean Cmin (SD) (Panel III (150 mg BID Days 1-2, then 300 mg Q7D; SF2a/b, fed), Day 1): 0.000 (0.000) ng/mL
Mean Cmin (SD) [3]: 899 (151) ng/mL
Mean Ctrough (SD) [3]: 899 (151) ng/mL
Mean Ctrough (SD) (Panel III (150 mg BID Days 1-2, then 300 mg Q7D; SF2a/b, fed), Day 3): 1582 (298) ng/mL
Mean Ctrough (SD) (Panel III (150 mg BID Days 1-2, then 300 mg Q7D; SF2a/b, fed), Day 10): 775 (99.3) ng/mL
Mean Ctrough (SD) (Panel III (150 mg BID Days 1-2, then 300 mg Q7D; SF2a/b, fed), Day 17): 700 (98.1) ng/mL
Mean Cmin (SD) (Panel IV (150 mg BID Days 1-2, then 150 mg Q3D/Q4D; SF2a/b, fed), Day 1): 0.000 (0.000) ng/mL
Mean Cmin (SD) [4]: 892 (257) ng/mL
Mean Ctrough (SD) [4]: 892 (257) ng/mL
Mean Ctrough (SD) (Panel IV (150 mg BID Days 1-2, then 150 mg Q3D/Q4D; SF2a/b, fed), Day 3): 1472 (385) ng/mL
Mean Ctrough (SD) (Panel IV (150 mg BID Days 1-2, then 150 mg Q3D/Q4D; SF2a/b, fed), Day 6): 865 (236) ng/mL
Mean Ctrough (SD) (Panel IV (150 mg BID Days 1-2, then 150 mg Q3D/Q4D; SF2a/b, fed), Day 10): 681 (234) ng/mL
Mean Ctrough (SD) (Panel IV (150 mg BID Days 1-2, then 150 mg Q3D/Q4D; SF2a/b, fed), Day 13): 689 (238) ng/mL
Mean Ctrough (SD) (Panel IV (150 mg BID Days 1-2, then 150 mg Q3D/Q4D; SF2a/b, fed), Day 17): 570 (269) ng/mL
Mean Ctrough (Panel IV (150 mg BID Days 1-2, then 150 mg Q3D/Q4D; SF2a/b, fed), Day 20): 710 (236) ng/mL
Mean Ctrough (SD) (Panel IV (150 mg BID Days 1-2, then 150 mg Q3D/Q4D; SF2a/b, fed), Day 24): 612 (239) ng/mL
Mean Ctrough (SD) (Panel IV (150 mg BID Days 1-2, then 150 mg Q3D/Q4D; SF2a/b, fed), Day 27): 623 (237) ng/mL
maintaining exposures over time with weekly or twice weekly dosing (Panels I-IV, fed): feasible to maintain Compound (a) exposures over time
AUC [5]: 5680 ng·h/mL
Tmax [5]: 5 h
AUC [6]: 16800 ng·h/mL
Cmax [6]: 1810 ng/mL
Tmax [6]: 5 h
Cmax (human, plasma, oral, 150 mg, Panel IV (150 mg BID Days 1-2, then 150 mg Q3D/Q4D; SF2a/b, fed), Day 1): 753 ng/mL
AUC(0-t) (human, plasma, oral, 150 mg, Panel IV (150 mg BID Days 1-2, then 150 mg Q3D/Q4D; SF2a/b, fed), Day 3, read-out: Mean AUC24 h (SD)): 38600 ng·h/mL
AUC(0-t) (human, plasma, oral, 150 mg, Panel IV (150 mg BID Days 1-2, then 150 mg Q3D/Q4D; SF2a/b, fed), Day 3, read-out: Mean AUC72 h (SD)): 89200 ng·h/mL
Cmax [7]: 2120 ng/mL
Tmax [7]: 5 h
Cmax (human, plasma, oral, 150 mg, Panel IV (150 mg BID Days 1-2, then 150 mg Q3D/Q4D; SF2a/b, fed), Day 6): 1460 ng/mL
Cmax (human, plasma, oral, 150 mg, Panel IV (150 mg BID Days 1-2, then 150 mg Q3D/Q4D; SF2a/b, fed), Day 10): 1230 ng/mL
Cmax (human, plasma, oral, 150 mg, Panel IV (150 mg BID Days 1-2, then 150 mg Q3D/Q4D; SF2a/b, fed), Day 13): 1180 ng/mL
Cmax (human, plasma, oral, 150 mg, Panel IV (150 mg BID Days 1-2, then 150 mg Q3D/Q4D; SF2a/b, fed), Day 17, n = 3): 1210 ng/mL
Cmax (human, plasma, oral, 150 mg, Panel IV (150 mg BID Days 1-2, then 150 mg Q3D/Q4D; SF2a/b, fed), Day 20): 1200 ng/mL
Cmax (human, plasma, oral, 150 mg, Panel IV (150 mg BID Days 1-2, then 150 mg Q3D/Q4D; SF2a/b, fed), Day 24): 1260 ng/mL
AUC(0-t) (human, plasma, oral, 150 mg, Panel IV (150 mg BID Days 1-2, then 150 mg Q3D/Q4D; SF2a/b, fed), Day 27, read-out: Mean AUC24 h (SD)): 26000 ng·h/mL
AUC(0-t) (human, plasma, oral, 150 mg, Panel IV (150 mg BID Days 1-2, then 150 mg Q3D/Q4D; SF2a/b, fed), Day 27, read-out: Mean AUC72 h (SD)): 65800 ng·h/mL
AUC(0-t) (human, plasma, oral, 150 mg, Panel IV (150 mg BID Days 1-2, then 150 mg Q3D/Q4D; SF2a/b, fed), Day 27, read-out: Mean AUClast (SD)): 258000 ng·h/mL
AUC(0-inf) (human, plasma, oral, 150 mg, Panel IV (150 mg BID Days 1-2, then 150 mg Q3D/Q4D; SF2a/b, fed), Day 27, read-out: Mean AUC∞ (SD)): 274000 ng·h/mL
Cmax [8]: 1380 ng/mL
Tmax [8]: 5 h
AUC(0-t) (human, plasma, oral, 300 mg, Panel III (150 mg BID Days 1-2, then 300 mg Q7D; SF2a/b, fed), Day 3, read-out: Mean AUC24 h (SD)): 52400 ng·h/mL
AUC(0-t) (human, plasma, oral, 300 mg, Panel III (150 mg BID Days 1-2, then 300 mg Q7D; SF2a/b, fed), Day 3, read-out: Mean AUC72 h (SD)): 122000 ng·h/mL
